Results: PubChem BioAssay (NCI)
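Interpolation was linear, between the two tested concentrations surrounding the appropriate level; five concentrations were tested over 48 hours in 96-well plates. The concentration for 50% growth inhibition is given as GI50. TGI denotes the concentration required for complete inhibition of growth.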

Columns and labels:
Test in all cases: NCI anticancer screen, dose series, 48 h
NCI-H226 lung = system: NCI-H226 lung
786-0 renal = system: 786-0 renal
TK-10 renal = system: TK-10 renal
CCRF-CEM leukemia = system: CCRF-CEM leukemia
HS 578T breast = system: HS 578T breast
NCI-H23 lung = system: NCI-H23 lung
SK-MEL-2 melanoma = system: SK-MEL-2 melanoma
MOLT-4 leukemia = system: MOLT-4 leukemia
HOP-62 NSCLC = system: HOP-62 NSCLC
MDA-MB-231 breast = system: MDA-MB-231 breast
CAKI-1 renal = system: CAKI-1 renal
T-47D breast = system: T-47D breast
MDA-MB-435 = system: MDA-MB-435
SW-620 colon = system: SW-620 colon
RPMI-8226 leukemia = system: RPMI-8226 leukemia
OVCAR-4 ovarian = system: OVCAR-4 ovarian
LOX IMVI melanoma = system: LOX IMVI melanoma
UO-31 renal = system: UO-31 renal
BT-549 breast = system: BT-549 breast
SF-268 CNS = system: SF-268 CNS
SK-MEL-5 melanoma = system: SK-MEL-5 melanoma
COLO 205 colon = system: COLO 205 colon
NCI-H460 lung = system: NCI-H460 lung
ACHN renal = system: ACHN renal
SNB-75 CNS = system: SNB-75 CNS
OVCAR-8 ovarian = system: OVCAR-8 ovarian
HCT-15 colon = system: HCT-15 colon
HOP-92 NSCLC = system: HOP-92 NSCLC
K-562 leukemia = system: K-562 leukemia
UACC-257 melanoma = system: UACC-257 melanoma
PC-3 prostate = system: PC-3 prostate
SF-295 CNS = system: SF-295 CNS
HT29 colon = system: HT29 colon
HCT-116 colon = system: HCT-116 colon
MALME-3M melanoma = system: MALME-3M melanoma
HL-60(TB) leukemia = system: HL-60(TB) leukemia
A498 renal = system: A498 renal
DU-145 prostate = system: DU-145 prostate
U251 CNS = system: U251 CNS
SK-OV-3 ovarian = system: SK-OV-3 ovarian
SR leukemia = system: SR leukemia
OVCAR-5 ovarian = system: OVCAR-5 ovarian
SN12C renal = system: SN12C renal
HCC-2998 colon = system: HCC-2998 colon
NCI/ADR-RES ovarian = system: NCI/ADR-RES ovarian
SNB-19 CNS = system: SNB-19 CNS
RXF 393 renal = system: RXF 393 renal
SK-MEL-28 melanoma = system: SK-MEL-28 melanoma
NCI-H522 lung = system: NCI-H522 lung
EKVX NSCLC = system: EKVX NSCLC
SF-539 CNS = system: SF-539 CNS
UACC-62 melanoma = system: UACC-62 melanoma
M14 melanoma = system: M14 melanoma
KM12 colon = system: KM12 colon
A549 NSCLC = system: A549 NSCLC
OVCAR-3 ovarian = system: OVCAR-3 ovarian
MCF7 breast = system: MCF7 breast

N#Cc1c(NC(=O)c2cccs2)[n+]([O-])c2ccccc2[n+]1[O-]
GI50 (NCI-H226 lung): 86.4 µM
TGI (NCI-H226 lung): > 100 µM
GI50 (786-0 renal): > 100 µM
TGI (786-0 renal): > 100 µM
GI50 (TK-10 renal): > 100 µM
TGI (TK-10 renal): > 100 µM
GI50 (CCRF-CEM leukemia): > 100 µM
TGI (CCRF-CEM leukemia): > 100 µM
GI50 (HS 578T breast): 95.9 µM
TGI (HS 578T breast): > 100 µM
GI50 (NCI-H23 lung): > 100 µM
TGI (NCI-H23 lung): > 100 µM
GI50 (SK-MEL-2 melanoma): > 100 µM
TGI (SK-MEL-2 melanoma): > 100 µM
GI50 (MOLT-4 leukemia): > 100 µM
TGI (MOLT-4 leukemia): > 100 µM
GI50 (HOP-62 NSCLC): > 100 µM
TGI (HOP-62 NSCLC): > 100 µM
GI50 (MDA-MB-231 breast): > 100 µM
TGI (MDA-MB-231 breast): > 100 µM
GI50 (CAKI-1 renal): > 100 µM
TGI (CAKI-1 renal): > 100 µM
GI50 (T-47D breast): 89.3 µM
TGI (T-47D breast): > 100 µM
GI50 (MDA-MB-435): > 100 µM
TGI (MDA-MB-435): > 100 µM
GI50 (SW-620 colon): > 100 µM
TGI (SW-620 colon): > 100 µM
GI50 (RPMI-8226 leukemia): > 100 µM
TGI (RPMI-8226 leukemia): > 100 µM
GI50 (OVCAR-4 ovarian): > 100 µM
TGI (OVCAR-4 ovarian): > 100 µM
GI50 (LOX IMVI melanoma): > 100 µM
TGI (LOX IMVI melanoma): > 100 µM
GI50 (UO-31 renal): > 100 µM
TGI (UO-31 renal): > 100 µM
GI50 (BT-549 breast): > 100 µM
TGI (BT-549 breast): > 100 µM
GI50 (SF-268 CNS): > 100 µM
TGI (SF-268 CNS): > 100 µM
GI50 (SK-MEL-5 melanoma): 39.9 µM
TGI (SK-MEL-5 melanoma): > 100 µM
GI50 (COLO 205 colon): > 100 µM
TGI (COLO 205 colon): > 100 µM
GI50 (NCI-H460 lung): > 100 µM
TGI (NCI-H460 lung): > 100 µM
GI50 (ACHN renal): > 100 µM
TGI (ACHN renal): > 100 µM
GI50 (SNB-75 CNS): 49.5 µM
TGI (SNB-75 CNS): > 100 µM
GI50 (OVCAR-8 ovarian): 63.4 µM
TGI (OVCAR-8 ovarian): > 100 µM
GI50 (HCT-15 colon): 64.1 µM
TGI (HCT-15 colon): > 100 µM
GI50 (HOP-92 NSCLC): 81.7 µM
TGI (HOP-92 NSCLC): > 100 µM
GI50 (K-562 leukemia): > 100 µM
TGI (K-562 leukemia): > 100 µM
GI50 (UACC-257 melanoma): > 100 µM
TGI (UACC-257 melanoma): > 100 µM
GI50 (PC-3 prostate): 64.9 µM
TGI (PC-3 prostate): > 100 µM
GI50 (SF-295 CNS): > 100 µM
TGI (SF-295 CNS): > 100 µM
GI50 (HT29 colon): > 100 µM
TGI (HT29 colon): > 100 µM
GI50 (HCT-116 colon): > 100 µM
TGI (HCT-116 colon): > 100 µM
GI50 (MALME-3M melanoma): 96.2 µM
TGI (MALME-3M melanoma): > 100 µM
GI50 (HL-60(TB) leukemia): > 100 µM
TGI (HL-60(TB) leukemia): > 100 µM
GI50 (A498 renal): > 100 µM
TGI (A498 renal): > 100 µM
GI50 (DU-145 prostate): > 100 µM
TGI (DU-145 prostate): > 100 µM
GI50 (U251 CNS): > 100 µM
TGI (U251 CNS): > 100 µM
GI50 (SK-OV-3 ovarian): 26 µM
TGI (SK-OV-3 ovarian): > 100 µM
GI50 (SR leukemia): > 100 µM
TGI (SR leukemia): > 100 µM
GI50 (OVCAR-5 ovarian): > 100 µM
TGI (OVCAR-5 ovarian): > 100 µM
GI50 (SN12C renal): > 100 µM
TGI (SN12C renal): > 100 µM
GI50 (HCC-2998 colon): > 100 µM
TGI (HCC-2998 colon): > 100 µM
GI50 (NCI/ADR-RES ovarian): > 100 µM
TGI (NCI/ADR-RES ovarian): > 100 µM
GI50 (SNB-19 CNS): > 100 µM
TGI (SNB-19 CNS): > 100 µM
GI50 (RXF 393 renal): > 100 µM
TGI (RXF 393 renal): > 100 µM
GI50 (SK-MEL-28 melanoma): > 100 µM
TGI (SK-MEL-28 melanoma): > 100 µM
GI50 (NCI-H522 lung): > 100 µM
TGI (NCI-H522 lung): > 100 µM
GI50 (EKVX NSCLC): 93.8 µM
TGI (EKVX NSCLC): > 100 µM
GI50 (SF-539 CNS): > 100 µM
TGI (SF-539 CNS): > 100 µM
GI50 (UACC-62 melanoma): > 100 µM
TGI (UACC-62 melanoma): > 100 µM
GI50 (M14 melanoma): > 100 µM
TGI (M14 melanoma): > 100 µM
GI50 (KM12 colon): > 100 µM
TGI (KM12 colon): > 100 µM
GI50 (A549 NSCLC): > 100 µM
TGI (A549 NSCLC): > 100 µM
GI50 (OVCAR-3 ovarian): > 100 µM
TGI (OVCAR-3 ovarian): > 100 µM
GI50 (MCF7 breast): > 100 µM
TGI (MCF7 breast): > 100 µM
